Structures can show the parent of a compound that is named as a salt. Where two headings read alike, the source gives them in different places.
Columns and labels:
[1] = Toxicity (LD50) in the mouse; details: in vivo
From the text: As the examples investigated show considerable differences in toxicity compared to the standard substances, the LD50 values are also listed in Table 6,

NMDA-induced cramps = experiment: Inhibition of NMDA-induced cramps in the mouse; format: in vivo; details: po, 1 h; for inhibition in vivo at 0.3 mg/kg: 0.3 mg/kg p.o.
Protocol: 4. Inhibition of NMDA-induced-cramps in the mouse
The examples listed below show neuroprotective activity in that they antagonize the cramps induced by NMDA (N-methyl-(D)-aspartate). To this end, intravenous injections of 20-30 mg/kg of NMDA are carried out on a male NMRI (Naval Medical Research Institute) mice of 22-24 g body weight, which leads to stereotypes, clonic cramps and in the majority of cases to mortality. In order to investigate an NMDA-antagonist activity of the test substances, they are administered orally one hour before NMDA. The animals are then observed for the abovementioned symptoms for up to 60 min. The number of animals with clonic cramps and the incidence of mortality, expressed in percent change compared to the control group, is regarded as the evaluation criterion.

[2] = tested on: high affinity 3H-D-aspartate absorption, synaptic vesicles (synaptosomes) from rat cortex; experiment: "High affinity" absorption of 3H-aspartate in a vesicle preparation from rat brain; format: biochemical; details: for Stimulation of the 3H-D-aspartate absorption, Stimulation (%): relative to control values (100%)
Protocol: 1. "High affinity" absorption of ^3 H-aspartate in a vesicle preparation from rat brain.
Test principle: Fresh synaptic vesicles (synaptosomes) from rat cortex are incubated with buffer solution and ^3 H-D-aspartate and ^3 H-D-aspartate in the vesicles is measured. Preparations which in comparison to control synaptosomes increase the high affinity ^3 H-D-aspartate absorption and those which prevent the loss of ^3 H-D-aspartate by reliberation are regarded as particularly interesting.
Experimental protocol: The experiments for ^3 H-D-aspartate absorption were carried out by the method of Anand et al. (Biochem. Pharmacol., 35 (1986), 1055-1057). The synaptic vesicles were dissected out of cerebral cortex from male Sprague-Dawley rats. The preparations were tested at four concentrations as double samples in parallel with control samples containing buffer. The incubation medium (pH 7.4) contains: 1.2 mM KH2 PO4, 5 mM KCl, 5 mM pyruvate, 1.2 mM glucose, 1.2 mM MgCl2, 114 mM NaCl, 25 mM NaHCO3. For the non-specific ^3 H-D-aspartate absorption, NaCl was replaced by 114 mM choline chloride and NaHCO3 by 25 mM KHCO3. An aliquot of the vesicle suspension (about 25 μg/ml of test solution) was added to the test sample which was temperature controlled at 37° C. and aerated with Carbogen (5% CO2, 95% O2) and preincubated for 2 minutes. The three minutes incubation for the amino acid absorption was started by addition of 50 μl of ^3 H-D-aspartate (specific activity 25 Ci/mmol, 10 pmol/ml of test solution). The vesicles were separated from the incubation medium by filtration and additional washing of the adhering labeled amino acids using a Titertek cell harvester (Flow Laboratories, Meckenheim). The ^3 H-D-aspartate absorption was measured by means of a liquid scintillation counter (Canberra-Packard, Model 1500, Frankfurt).
The preparation activity is indicated in percent of the specific ^3 H-D-aspartate absorption, relative to control values (100%), in Table 3. Adenosine triphosphate (ATP) was used for comparison as the standard substance (see Table 3) and at 1 mM caused a 35% increase in the ^3 H-D-aspartate absorption.

[3] = tested on: CA1 pyramidal cells of the hippocampus after forebrain ischemia; experiment: Neuroprotection after forebrain ischemia in the gerbil; details: for Cell necroses (% change) / Behavior score (% change): 15 minutes before ischemia; for Cell necroses (% change): histopathological score CA1, treated versus control group; for Behavior score (% change): treated versus control group
Protocol: A 5-minutes' ischemia of the forebrain with subsequent recirculation is produced in 20 male Mongolian gerbils under halothane anesthesia by bilateral closure of the corotid artery by means of aneurysm clips. 7 days later, the animals are decapitated under halothane anesthesia, the brains are fixed by immersion in Carnoy solution and the extent of neuron damage in the CA1 region of the hippocampus is determined "blind" with the aid of a 5-stage histopathological score. The test substance is administered intraperitoneally or orally 15 minutes before ischemia to each group of 10 gerbils. One ischemic control group, also of 10 animals, is treated with the respective solvents per test substance.

[4] = 50 mg/kg p.o., one hour before NMDA i.v., change compared to control group, read-out: Inhibition of convulsions
[5] = preparation concentration 100 μM
[6] = preparation concentration 10 μM
[7] = preparation concentration 500 μM
[8] = preparation concentration 1000 μM (1 mM)
[9] = read-out: Inhibition of mortality
[10] = one hour before NMDA i.v., change compared to control group, read-out: Inhibition of convulsions
[11] = one hour before NMDA i.v., change compared to control group, read-out: Inhibition of mortality

NCC1CC(CCC(=O)O)=NO1 (racemic) [Example 29, 5-Aminomethyl-2-isoxazoline-3-propionic acid, racemate]
LD50 ([1]; iv): > 200 mg/kg | inhibition in vivo at 50 mg/kg (NMDA-induced cramps; [4]): 20%

C[C@H]1C[C@@H](OC(=O)CCc2cc(CN)on2)CC(C)(C)C1 (relative stereo) [Example 9, cis-(3,3,5)trimethylcyclohexyl 5-aminomethylisoxazole-3-propionate toluene-4-sulfonate]
Stimulation of the 3H-D-aspartate absorption, Stimulation (%) [2, 5]: 19%

C[C@H]1C[C@@H](OC(=O)CCc2cc(C[N+](C)(C)C)on2)CC(C)(C)C1 (relative stereo) [Example 58, cis-(3,3,5)-trimethylcyclohexyl-5-trimethylammoniomethylisoxazole-3-propionate iodide]
Stimulation of the 3H-D-aspartate absorption, Stimulation (%) [2, 6]: 35%

NCC1CC(CCC(=O)O)=NO1 (single isomer, unassigned) [Example 31, 5-Aminomethyl-2-isoxazoline-3-propionic acid, (+)-enantiomer]
Stimulation of the 3H-D-aspartate absorption, Stimulation (%) [2, 7]: 21%

CC(C)[C@H]1CC[C@H](C)C[C@@H]1OC(=O)CCC1=NOC(CN)C1 (single isomer, unassigned; (+)) [Example 27, (+)-Menthyl 5-aminomethyl-2-isoxazoline-3-propionate toluene-4-sulfonate]
LD50 ([1]; iv): 50 to 100 mg/kg | inhibition in vivo at 50 mg/kg (NMDA-induced cramps; [4]): 20%

CC(C)[C@@H]1CC[C@@H](C)C[C@H]1OC(=O)CCC1=NOC(CN)C1 (single isomer, unassigned; (-)) [Example 28, (-)-Menthyl 5-aminomethyl-2-isoxazoline-3-propionate toluene-4-sulfonate]
inhibition in vivo at 50 mg/kg (NMDA-induced cramps; [4]): 20%

Nc1ncnc2c1ncn2[C@@H]1O[C@H](COP(=O)(O)OP(=O)(O)OP(=O)(O)O)[C@@H](O)[C@H]1O [ATP, Adenosine triphosphate, reference compound]
activity on 3H-D-aspartate absorption (in words) ([2]; at a lower concentration than 500 μm): inactive | Stimulation of the 3H-D-aspartate absorption, Stimulation (%) [2, 7]: 31% | Stimulation of the 3H-D-aspartate absorption, Stimulation (%) [2, 8]: 35% | Stimulation of the 3H-D-aspartate absorption, Stimulation (%) ([2]; preparation concentration 2000 μM): 57% | Stimulation of the 3H-D-aspartate absorption, Stimulation (%) ([2]; preparation concentration 5000 μM): 121%

Cl.O=C(C1=NOC(CN2CCCC2)C1)N1CCCC1 (centres unmarked) [Example 3, 5-Pyrrolidinomethyl-3-pyrrolidinocarbonyl-2-isoxazoline hydrochloride]
Stimulation of the 3H-D-aspartate absorption, Stimulation (%) [2, 7]: 20%

CCOC(=O)CCc1cc(CN)on1.Cl [Example 6, ethyl 5-aminomethylisoxazole-3-propionate hydrochloride]
LD50 ([1]; iv): > 100 mg/kg | Stimulation of the 3H-D-aspartate absorption, Stimulation (%) [2, 6]: 17% | inhibition in vivo at 50 mg/kg (NMDA-induced cramps; [4]): 20% | inhibition in vivo at 50 mg/kg (NMDA-induced cramps; [9]): 40%

CCOP(C)(=O)CCc1cc(CN)on1 (centres unmarked) [Example 10, ethyl 2-(5-aminomethylisoxazole-3-yl)ethyl-2-(P-methyl)phosphinic acid hydrochloride]
LD50 ([1]; iv): > 100 mg/kg | Stimulation of the 3H-D-aspartate absorption, Stimulation (%) [2, 7]: 23% | inhibition in vivo at 50 mg/kg (NMDA-induced cramps; [4]): 10% | inhibition in vivo at 50 mg/kg (NMDA-induced cramps; 50 mg/kg p.o., one hour before NMDA i.v., change compared to control group, read-out: Inhibition of mortality): 70%

CC(C)(N)c1cc(CCC(=O)O)no1 [Example 13, 5-(1-Amino-1-methylethyl)isoxazole-3-propionic acid]
Stimulation of the 3H-D-aspartate absorption, Stimulation (%) [2, 7]: 33%

O=C(O)CCc1cc(CNCc2ccccc2)on1 [Example 14, 5-Benzylaminomethylisoxazole-3-propionic acid]
LD50 ([1]; ip): > 300 mg/kg | Stimulation of the 3H-D-aspartate absorption, Stimulation (%) [2, 7]: 19% | inhibition in vivo at 50 mg/kg (NMDA-induced cramps; [4]): 40%

CN(C)Cc1cc(CCC(=O)O)no1 [Example 15, 5-Dimethylaminomethylizoxazole-3-propionic acid]
LD50 ([1]; iv): > 100 mg/kg | inhibition in vivo at 50 mg/kg (NMDA-induced cramps; [4]): 40% | inhibition in vivo at 50 mg/kg (NMDA-induced cramps; [9]): 100%

CP(=O)(O)CCc1cc(CN)on1 [Example 16, 2-(5-Aminomethylisoxazol-3-yl)ethyl-2-(-methyl)phosphinic acid hydrochloride]
Stimulation of the 3H-D-aspartate absorption, Stimulation (%) [2, 8]: 19% | inhibition in vivo at 50 mg/kg (NMDA-induced cramps; read-out: Inhibition of convulsions): 30% | inhibition in vivo at 50 mg/kg (NMDA-induced cramps; [9]): 30% | Cell necroses (% change) ([3]; 50 mg/kg p.o.): -27 % change | Behavior score (% change) ([3]; 50 mg/kg p.o.): 0 % change

CC(=O)NCc1cc(CCC(=O)O)no1 [Example 17, 5-Acetamidomethylisoxazole-3-propionic acid]
LD50 ([1]; ip): > 300 mg/kg | inhibition in vivo at 30 mg/kg (NMDA-induced cramps; 30 mg/kg p.o., one hour before NMDA i.v., change compared to control group, read-out: Inhibition of convulsions): 30% | inhibition in vivo at 30 mg/kg (NMDA-induced cramps; [9]): 100%

N=C(N)NCc1cc(CCC(=O)O)no1 [Example 23, 5-Guanidinomethylisoxazole-3-propionic acid]
LD50 ([1]; ip): > 300 mg/kg | inhibition in vivo at 50 mg/kg (NMDA-induced cramps; [4]): 40%

NCc1cc(CCC(=O)NCC(=O)O)no1 [Example 24, N-(5-Aminomethylisoxazol-3-yl)propionylglycine]
Stimulation of the 3H-D-aspartate absorption, Stimulation (%) [2, 7]: 28%

Cl.NCc1cc(CCO)no1 [Example 25, 5-Aminomethyl-3-(2-hydroxyethyl)isoxazole hydrochloride]
Stimulation of the 3H-D-aspartate absorption, Stimulation (%) [2, 7]: 20%

N.N.O=C(O)CCc1cc(CNCc2cc(CCC(=O)O)no2)on1 [Example 26, Bis(3-[2-carboxyethyl]isoxazol-5-ylmethyl)amine diammonium salt]
LD50 ([1]; iv): > 100 mg/kg | inhibition in vivo at 50 mg/kg (NMDA-induced cramps; [4]): 40%

CC(=O)NCC1CC(CCC(=O)O)=NO1 (centres unmarked) [Example 32]
LD50 ([1]; iv): > 100 mg/kg | Stimulation of the 3H-D-aspartate absorption, Stimulation (%) [2, 5]: 19% | inhibition in vivo at 50 mg/kg (NMDA-induced cramps; [4]): 30% | inhibition in vivo at 50 mg/kg (NMDA-induced cramps; [9]): 50%

CN(C)C(=O)C1=NOC(CN)C1 (centres unmarked) [Example 39]
Stimulation of the 3H-D-aspartate absorption, Stimulation (%) [2, 8]: 14%

Cl.NCc1cc(CCC(N)=O)no1 [Example 50, 5-aminomethylisoxazole-3-propionamide hydrochloride]
Stimulation of the 3H-D-aspartate absorption, Stimulation (%) [2, 7]: 15%

O=C(O)CCc1cc(CNC(=O)CCC[N+](=O)[O-])on1 [Example 53]
inhibition in vivo at 50 mg/kg (NMDA-induced cramps; [4]): 33%

COC(=O)CCc1cc(C=NO)no1 [Example 55, methyl-3-hydroxyliminomethyl-isoxazole-5-propionate]
inhibition in vivo at 50 mg/kg (NMDA-induced cramps; [4]): 33% | inhibition in vivo at 50 mg/kg (NMDA-induced cramps; [9]): 100%

C[C@]12N[C@H](Cc3ccccc31)c1ccccc12 [MK 801, (+)-5-methyl-10,11-dihydro-5H-dibenzo[a,d]cyclohept-5-en-10-imine, reference compound]
LD50 ([1]; iv): 30 to 60 mg/kg | inhibition in vivo at 0.3 mg/kg (NMDA-induced cramps; [10]): 60% | inhibition in vivo at 0.3 mg/kg (NMDA-induced cramps; [11]): 60%

NCc1cc(=O)[nH]o1 [Muscimol, 5-(aminomethyl)-3(2H)-isoxazolone, reference compound]
LD50 ([1]; iv): 3 to 10 mg/kg | inhibition in vivo at 0.3 mg/kg (NMDA-induced cramps; [10]): 40% | inhibition in vivo at 0.3 mg/kg (NMDA-induced cramps; [11]): 60% | Cell necroses (% change) ([3]; 5 mg/kg i.p.): -74 % change | Behavior score (% change) ([3]; 5 mg/kg i.p.): +41 % change | post-ischemic neurological symptoms, behavior score (in words) ([3]; summary of Table 7): distinctly more negative post-ischemic symptoms in the behavior score | protection of cerebral nerve cells / dying cells (in words) ([3]; summary of Table 7): reduction in the dying cells

From patent US5273989A, “3,5-disubstituted 2-isoxazolines and isoxazoles, agents containing them and their use” (Hoechst Aktiengesellschaft, priority 1990, dated 1993)
